Results on 11 molecules are retold here after ChEMBL document CHEMBL1201862, “PubChem BioAssay data set” (2004).

For experiment [1], the target named is Metabotropic glutamate receptor 5 (Rattus norvegicus, UniProt P31424). The experiment is described as follows: Identification of a glycine sulfonamide based non-MPEP site positive allosteric potentiator (PAM) of mGlu5 (calcium_assay). In kind it is functional.
Experiment [2] deals with NAD-dependent protein deacylase sirtuin-5, mitochondrial (Homo sapiens, UniProt Q9NXA8). The experiment is described as follows: blockers of sirtuin-5 peptide desuccinylation – biochemical, fluorescence imaging, cherry-pick, set 6, dose response (AID 720597).
NAD-dependent protein deacylase sirtuin-5, mitochondrial, sequence (Q9NXA8 whole entry): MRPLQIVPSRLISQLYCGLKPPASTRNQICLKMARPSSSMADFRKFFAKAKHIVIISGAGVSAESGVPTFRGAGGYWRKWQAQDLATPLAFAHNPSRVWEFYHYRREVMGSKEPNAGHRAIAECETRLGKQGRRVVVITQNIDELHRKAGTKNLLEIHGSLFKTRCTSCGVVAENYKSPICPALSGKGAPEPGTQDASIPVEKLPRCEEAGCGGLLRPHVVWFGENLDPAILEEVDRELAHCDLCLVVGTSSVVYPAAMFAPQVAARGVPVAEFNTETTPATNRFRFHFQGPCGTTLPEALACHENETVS
Experiment [3] can be described thus: cytotoxicity in MITF-independent A375 cells – cell-based, CellTiter-Glo luminescence, dry powder, set 4, counter-screen for MITF inhibitor project, dose response (AID 624364).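 Note: A375 melanoma cells are MITF independent so this is a counter screen.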 The format is functional. As to conditions: A-375. For orientation: ATP-based viability assays read luminescence as a measure of living cells.
A short description of experiment [4]: viability loss in MITF-independent A375 cells – cell-based, CellTiter-Glo luminescence, dry powder, set 2, counter-screen for MITF inhibitor project, dose response (AID 624489).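 Note: actives are compounds lowering A375 viability meaning general cytotoxicity.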 In kind it is functional. To be noted: A-375.
Experiment [5] can be described thus: Late stage assay provider results from the probe development effort to identify selective inhibitors of heat shock protein 90 (HSP90): Absorbance-based cell proliferation assay in SKBR3 cells. In kind it is functional. To be noted: SK-BR-3.
Experiment [6] in a line: Late stage assay provider results from the probe development effort to identify selective inhibitors of heat shock protein 90 (HSP90): Absorbance-based cell proliferation assay in MCF7 cells. The format is functional.
The nature of experiment [7]: OVCAR8 cell viability loss – plate reader, dry powder samples, PAX8 project, dose response (AID 743197). The format is functional, cell-based. To be noted: OVCAR-8.
The target of experiment [8] is Paired box protein Pax-8 (Homo sapiens, UniProt Q06710). Briefly: PAX8 transcriptional activity inhibition in RMG-I – RMG-I cells, luciferase, cherry-pick, dose response (AID 687027).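 Note: luciferase reporter driven by Pax8 target thyroperoxidase promoter measured by SteadyGlo luminescence.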 The format is functional, cell-based.
Paired box protein Pax-8, sequence (Q06710 whole entry): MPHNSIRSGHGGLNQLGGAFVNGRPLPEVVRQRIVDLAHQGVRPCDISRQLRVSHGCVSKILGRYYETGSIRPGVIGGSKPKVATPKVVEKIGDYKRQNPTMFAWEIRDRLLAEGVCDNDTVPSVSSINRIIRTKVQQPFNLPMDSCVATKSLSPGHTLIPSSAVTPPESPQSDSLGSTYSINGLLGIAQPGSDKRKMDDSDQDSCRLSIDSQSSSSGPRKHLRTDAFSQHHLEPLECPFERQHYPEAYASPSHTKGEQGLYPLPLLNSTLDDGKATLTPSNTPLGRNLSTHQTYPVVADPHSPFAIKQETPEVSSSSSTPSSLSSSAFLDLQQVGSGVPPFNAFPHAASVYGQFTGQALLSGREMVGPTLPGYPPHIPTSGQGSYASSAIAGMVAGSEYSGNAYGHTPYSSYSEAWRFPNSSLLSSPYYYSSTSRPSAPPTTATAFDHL
Experiment [9] is described as follows: activation of miR-122 Renilla sensor silencing – cell-based, Huh7 psiCHECK-miR122, Renilla luciferase, cherry-picked, dose response (AID 651956).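 Note: huh7 hepatoma cells stably carrying a psiCHECK-2 miR-122 sensor plasmid; renilla luciferase signal reporting endogenous miR-122 activity after 48 h compound exposure.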 In kind it is functional.
Experiment [10] can be described thus: general mammalian cell viability loss – activator set, cherry-pick, cytotoxicity control for miR-122 modulator project, dose response (AID 720690).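 Note: HEK293T human cells scored for general mammalian cytotoxicity.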 In kind it is functional, cell-based.
Experiment [11] can be described thus: A549 lung cell viability reduction – CellTiter-Glo luminescence, cherry-pick, cytotoxicity control, dose response (AID 743484). In kind it is functional, cell-based.
The target in experiment [12] is T1, Oxysterols receptor LXR-beta (Homo sapiens, UniProt P55055).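 Note: agonist activity at LXR measured by a cell-based luminescence readout across a dose range, run as a counterscreen for daf-12 agonists; HEK293 cells with Gal4-LXR fusion and GAL4-driven luciferase reporter; potency for activation of Gal4-LXR reporter so compounds are agonists.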
T1 sequence (P55055 whole entry): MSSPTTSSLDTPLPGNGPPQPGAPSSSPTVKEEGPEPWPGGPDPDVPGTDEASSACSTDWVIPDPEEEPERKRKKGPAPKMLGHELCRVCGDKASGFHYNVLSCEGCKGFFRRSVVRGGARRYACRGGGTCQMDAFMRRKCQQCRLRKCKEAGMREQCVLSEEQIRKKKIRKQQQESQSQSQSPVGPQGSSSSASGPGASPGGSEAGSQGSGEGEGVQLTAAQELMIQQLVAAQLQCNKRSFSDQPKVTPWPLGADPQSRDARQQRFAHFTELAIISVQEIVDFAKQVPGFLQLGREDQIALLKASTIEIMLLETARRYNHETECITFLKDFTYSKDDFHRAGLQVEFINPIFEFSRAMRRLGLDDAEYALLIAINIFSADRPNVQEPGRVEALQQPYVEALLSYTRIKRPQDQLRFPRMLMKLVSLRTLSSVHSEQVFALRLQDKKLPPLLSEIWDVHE
In kind it is functional, cell-based.

Experiment [13] is described as follows: cells. To be noted: HEK293.
Experiment [14] in a line: Luminescence Cell-Based Dose Retest to Confirm Inhibitors of Cancer Stem Cells. [Related pubchem assays (depositor defined):AID2717, AID2721]. In kind it is functional. As to conditions: Homo sapiens.
Experiment [15] deals with CAAX prenyl protease 2 (Saccharomyces cerevisiae S288c, UniProt Q03530). In kind it is biochemical.
CAAX prenyl protease 2, sequence (Q03530 whole entry): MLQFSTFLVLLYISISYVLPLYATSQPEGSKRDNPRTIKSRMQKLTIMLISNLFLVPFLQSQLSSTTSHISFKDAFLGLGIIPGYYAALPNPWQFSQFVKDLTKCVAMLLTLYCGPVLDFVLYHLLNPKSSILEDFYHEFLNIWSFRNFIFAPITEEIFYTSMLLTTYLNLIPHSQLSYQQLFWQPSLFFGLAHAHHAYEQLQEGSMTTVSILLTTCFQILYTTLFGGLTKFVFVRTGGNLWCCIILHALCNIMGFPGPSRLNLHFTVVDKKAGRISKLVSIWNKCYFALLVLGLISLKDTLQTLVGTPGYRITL
A short description of experiment [16]: viability loss in HepG2 liver cells – cell-based, ATP luminescence, cherry-pick, set 6, cytotoxicity control, dose response (AID 1053125). The format is functional.
Experiment [17] can be described thus: cells. As to conditions: A549.
A short description of experiment [18]: viability loss in HepG2 hepatoma cells – cell-based, ATP luminescence, cherry-pick, activator set 2, cytotoxicity control, dose response (AID 1053143). The format is functional.
Experiment [19] in a line: cells. The format is functional, cell-based.
A short description of experiment [20]: cells. In kind it is functional, cell-based. The source holds these as a separate data set.
Experiment [21] concerns the target T2, Replicative DNA helicase DnaB (Mycobacterium tuberculosis, UniProt P9WMR3).
T2 sequence (P9WMR3 whole entry): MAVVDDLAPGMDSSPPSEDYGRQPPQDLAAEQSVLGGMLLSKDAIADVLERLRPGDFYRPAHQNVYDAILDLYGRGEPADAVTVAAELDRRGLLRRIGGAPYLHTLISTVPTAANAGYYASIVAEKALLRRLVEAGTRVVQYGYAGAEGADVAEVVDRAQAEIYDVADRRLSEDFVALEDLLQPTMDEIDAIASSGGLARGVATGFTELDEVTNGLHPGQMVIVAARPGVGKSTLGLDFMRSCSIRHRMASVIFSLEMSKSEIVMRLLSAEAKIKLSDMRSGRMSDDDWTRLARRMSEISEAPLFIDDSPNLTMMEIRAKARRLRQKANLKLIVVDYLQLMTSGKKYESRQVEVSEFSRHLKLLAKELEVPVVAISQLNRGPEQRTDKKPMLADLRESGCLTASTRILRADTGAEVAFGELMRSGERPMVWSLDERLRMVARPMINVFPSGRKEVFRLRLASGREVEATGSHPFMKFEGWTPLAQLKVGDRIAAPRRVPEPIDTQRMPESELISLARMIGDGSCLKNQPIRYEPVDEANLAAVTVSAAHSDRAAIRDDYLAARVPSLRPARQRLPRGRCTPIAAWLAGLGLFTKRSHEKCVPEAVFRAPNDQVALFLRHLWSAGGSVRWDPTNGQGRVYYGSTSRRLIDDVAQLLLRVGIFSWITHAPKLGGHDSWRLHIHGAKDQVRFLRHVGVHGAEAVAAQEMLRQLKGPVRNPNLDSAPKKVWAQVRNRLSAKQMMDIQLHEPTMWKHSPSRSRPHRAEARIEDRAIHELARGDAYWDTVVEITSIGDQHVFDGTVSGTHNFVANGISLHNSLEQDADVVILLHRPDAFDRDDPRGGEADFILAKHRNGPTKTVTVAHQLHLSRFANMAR
Briefly: DnaB intein splicing inhibitors, dose response, biochemical, cell-free fluorescence (AID 449749). In kind it is functional.

Experiment [22] has as its target T3, Protein RecA (Mycobacterium tuberculosis, UniProt P9WHJ3).
T3 sequence (P9WHJ3 whole entry): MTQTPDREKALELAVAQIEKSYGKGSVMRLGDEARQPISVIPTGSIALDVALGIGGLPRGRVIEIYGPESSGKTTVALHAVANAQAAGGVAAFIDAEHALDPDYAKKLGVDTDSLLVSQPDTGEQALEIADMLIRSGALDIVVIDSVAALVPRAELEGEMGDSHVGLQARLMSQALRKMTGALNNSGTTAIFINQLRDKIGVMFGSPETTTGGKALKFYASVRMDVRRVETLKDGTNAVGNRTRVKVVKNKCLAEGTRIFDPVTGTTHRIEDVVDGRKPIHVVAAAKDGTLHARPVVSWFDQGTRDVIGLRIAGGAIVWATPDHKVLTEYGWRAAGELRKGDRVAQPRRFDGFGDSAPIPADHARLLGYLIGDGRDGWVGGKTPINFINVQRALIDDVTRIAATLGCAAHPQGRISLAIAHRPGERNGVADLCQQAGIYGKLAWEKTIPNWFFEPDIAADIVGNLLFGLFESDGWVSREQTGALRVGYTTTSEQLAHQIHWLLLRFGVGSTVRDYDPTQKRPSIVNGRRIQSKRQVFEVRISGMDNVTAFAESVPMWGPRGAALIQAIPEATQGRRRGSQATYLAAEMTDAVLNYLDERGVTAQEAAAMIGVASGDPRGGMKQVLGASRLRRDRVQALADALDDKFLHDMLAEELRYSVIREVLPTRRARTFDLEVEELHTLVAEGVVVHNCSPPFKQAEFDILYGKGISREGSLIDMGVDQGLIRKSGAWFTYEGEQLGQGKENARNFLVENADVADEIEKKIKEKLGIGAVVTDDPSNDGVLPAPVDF
Briefly: Fluorescence Cell-Free Homogeneous Dose Retest to Identify Inhibitors of RecA-Intein Splicing Activity. [Related pubchem assays (depositor defined):AID2097, AID2223, AID489010, AID492950]. The format is functional.

For experiment [23], the target named is T4, Apoptotic protease-activating factor 1 (Homo sapiens, UniProt O14727).
T4 sequence (O14727 whole entry): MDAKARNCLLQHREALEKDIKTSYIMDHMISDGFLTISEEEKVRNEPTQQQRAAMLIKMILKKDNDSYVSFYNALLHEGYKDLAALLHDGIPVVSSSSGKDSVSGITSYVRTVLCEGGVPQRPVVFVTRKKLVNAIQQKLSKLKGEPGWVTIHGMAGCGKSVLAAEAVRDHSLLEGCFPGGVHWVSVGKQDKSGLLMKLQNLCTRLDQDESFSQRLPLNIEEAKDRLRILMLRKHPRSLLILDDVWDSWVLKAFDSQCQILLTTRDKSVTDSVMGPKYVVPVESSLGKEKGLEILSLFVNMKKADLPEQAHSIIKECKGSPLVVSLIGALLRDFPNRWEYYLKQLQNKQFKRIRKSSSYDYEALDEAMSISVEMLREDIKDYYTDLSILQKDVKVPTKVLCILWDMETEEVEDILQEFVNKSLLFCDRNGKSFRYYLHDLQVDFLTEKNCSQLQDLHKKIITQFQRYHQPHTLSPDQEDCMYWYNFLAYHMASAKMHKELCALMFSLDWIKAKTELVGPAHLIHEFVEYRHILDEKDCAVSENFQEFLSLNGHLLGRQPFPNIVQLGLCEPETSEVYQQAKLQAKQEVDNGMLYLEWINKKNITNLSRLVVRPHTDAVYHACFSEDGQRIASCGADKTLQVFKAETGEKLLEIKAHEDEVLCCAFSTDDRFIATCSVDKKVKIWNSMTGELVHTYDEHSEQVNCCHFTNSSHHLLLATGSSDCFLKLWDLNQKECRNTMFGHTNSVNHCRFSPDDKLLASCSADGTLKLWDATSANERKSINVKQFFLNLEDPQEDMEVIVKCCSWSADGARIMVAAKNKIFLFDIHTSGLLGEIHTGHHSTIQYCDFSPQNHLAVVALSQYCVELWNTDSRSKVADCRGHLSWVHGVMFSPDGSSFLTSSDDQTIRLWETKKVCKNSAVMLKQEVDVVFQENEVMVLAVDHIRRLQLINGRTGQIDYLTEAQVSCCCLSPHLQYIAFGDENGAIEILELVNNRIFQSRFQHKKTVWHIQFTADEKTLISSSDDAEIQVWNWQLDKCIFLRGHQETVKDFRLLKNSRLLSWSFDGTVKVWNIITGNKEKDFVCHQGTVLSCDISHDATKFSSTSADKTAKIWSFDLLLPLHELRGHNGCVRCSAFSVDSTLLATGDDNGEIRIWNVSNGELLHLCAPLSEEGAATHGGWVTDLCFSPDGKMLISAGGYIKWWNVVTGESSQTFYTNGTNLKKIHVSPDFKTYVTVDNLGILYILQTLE
In kind it is functional.

Experiment [24] addresses Tyrosyl-DNA phosphodiesterase 2 (Homo sapiens, UniProt O95551). Briefly: potency against TDP2 phosphodiesterase activity – biochemical, epi absorbance, IC50, dose response (AID 743297).
In experiment [25] the target is Mitochondrial peptide methionine sulfoxide reductase (Bos taurus, UniProt P54149). The format is functional.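 Note: absorbance read-out, biochemical high-throughput dose-response screen for MsrA inhibitors, confirmatory; recombinant bovine MsrA coupled to E. coli TrxB with NADPH and selenocystamine; potency is for inhibitors of MsrA activity on DMSO substrate.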
Mitochondrial peptide methionine sulfoxide reductase, sequence (P54149 whole entry): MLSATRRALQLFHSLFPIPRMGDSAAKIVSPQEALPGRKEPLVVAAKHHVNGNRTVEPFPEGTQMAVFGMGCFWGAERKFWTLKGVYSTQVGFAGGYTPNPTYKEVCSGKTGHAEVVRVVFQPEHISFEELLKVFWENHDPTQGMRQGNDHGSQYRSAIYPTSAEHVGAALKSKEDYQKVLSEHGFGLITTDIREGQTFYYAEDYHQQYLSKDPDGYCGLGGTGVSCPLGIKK

Activity calls are given as the source filed them. A value given as a limit tells only on which side of the number the result lay.

Metabotropic glutamate receptor 5, sequence (P31424 whole entry): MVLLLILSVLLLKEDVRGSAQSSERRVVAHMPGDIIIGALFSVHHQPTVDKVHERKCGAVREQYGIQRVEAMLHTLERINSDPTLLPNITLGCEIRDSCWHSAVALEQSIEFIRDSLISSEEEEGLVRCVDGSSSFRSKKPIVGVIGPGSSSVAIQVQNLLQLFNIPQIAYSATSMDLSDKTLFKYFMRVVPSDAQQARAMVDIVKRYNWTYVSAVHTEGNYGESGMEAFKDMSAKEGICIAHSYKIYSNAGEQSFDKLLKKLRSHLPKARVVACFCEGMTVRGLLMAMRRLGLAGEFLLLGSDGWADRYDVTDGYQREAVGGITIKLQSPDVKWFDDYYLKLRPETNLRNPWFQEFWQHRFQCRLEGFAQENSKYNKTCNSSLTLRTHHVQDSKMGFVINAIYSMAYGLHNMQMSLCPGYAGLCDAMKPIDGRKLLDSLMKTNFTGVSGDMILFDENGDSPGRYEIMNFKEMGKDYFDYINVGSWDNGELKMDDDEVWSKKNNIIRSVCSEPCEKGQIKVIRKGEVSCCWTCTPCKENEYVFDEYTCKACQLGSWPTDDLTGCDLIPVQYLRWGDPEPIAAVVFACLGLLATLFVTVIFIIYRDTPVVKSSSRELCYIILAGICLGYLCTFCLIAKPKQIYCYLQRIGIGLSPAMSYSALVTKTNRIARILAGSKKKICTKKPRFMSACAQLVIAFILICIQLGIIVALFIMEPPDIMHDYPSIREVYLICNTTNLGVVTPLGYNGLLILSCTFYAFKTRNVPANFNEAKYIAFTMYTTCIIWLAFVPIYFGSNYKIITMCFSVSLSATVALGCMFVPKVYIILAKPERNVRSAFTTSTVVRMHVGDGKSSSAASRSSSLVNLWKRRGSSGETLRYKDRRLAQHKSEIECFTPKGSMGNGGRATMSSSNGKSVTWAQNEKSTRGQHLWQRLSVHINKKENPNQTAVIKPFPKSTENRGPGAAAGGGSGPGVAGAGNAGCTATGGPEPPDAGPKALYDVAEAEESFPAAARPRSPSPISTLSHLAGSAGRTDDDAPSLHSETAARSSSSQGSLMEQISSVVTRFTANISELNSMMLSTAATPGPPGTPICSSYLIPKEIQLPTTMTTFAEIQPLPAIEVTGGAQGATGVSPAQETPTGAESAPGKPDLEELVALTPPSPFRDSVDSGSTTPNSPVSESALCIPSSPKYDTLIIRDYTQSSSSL
Tyrosyl-DNA phosphodiesterase 2, sequence (O95551 whole entry): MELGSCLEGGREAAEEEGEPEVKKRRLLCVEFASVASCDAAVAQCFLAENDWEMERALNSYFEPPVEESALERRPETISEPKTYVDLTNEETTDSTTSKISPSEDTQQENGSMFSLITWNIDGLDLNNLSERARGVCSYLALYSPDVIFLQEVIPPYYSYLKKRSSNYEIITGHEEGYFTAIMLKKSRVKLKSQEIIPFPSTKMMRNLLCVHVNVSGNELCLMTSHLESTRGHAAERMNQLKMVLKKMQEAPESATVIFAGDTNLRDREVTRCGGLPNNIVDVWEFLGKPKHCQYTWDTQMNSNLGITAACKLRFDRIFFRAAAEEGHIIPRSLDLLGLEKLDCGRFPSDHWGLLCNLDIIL

With `CS(=O)(=O)N(CC(=O)NC1CCC1)c1cc(C(F)(F)F)ccc1Cl`, the EC50 in [1] turned out to be 1390 nM.

Regarding `C[C@H](CO)N1C[C@H](C)[C@@H](CN(C)C(=O)C2CCCCC2)OCCCC[C@H](C)Oc2ccc(NC(=O)Nc3ccc(F)cc3)cc2C1=O`, the AC50 in experiment [2] is > 30 µM (inactive).

As for `CCN(CC)CCCNC1=C(Nc2ccccc2)C(=O)c2ccccc2C1=O`, the AC50 in experiment [3] is 65 µM (active); in experiment [4], 31 µM (active).

For the molecule `CC(NC(=O)c1coc(=O)c(Br)c1)C1C2CCC3CC(C2)CC31` (stereo not given), the results for the IC50 in [5] and in [6] were 8.3 µM (active) and 1.8 µM (active), respectively.

For `C[C@H](CO)N1C[C@H](C)[C@@H](CN(C)CC2CCCCC2)Oc2c(NC(=O)CCCCCC(=O)Nc3ccccc3N)cccc2C1=O`, the AC50 in [7] was 46.8 µM (active); in [8], 11.1 µM (active).

For the molecule `C[C@@H]1CN([C@H](C)CO)S(=O)(=O)c2ccc(C#Cc3ccncc3)cc2O[C@@H]1CN(C)C(=O)Nc1ccc2c(c1)OCO2`, the AC50 in experiment [9] is 4.77 µM (active); in experiment [10], 29.8 µM (active).

Take `Cc1cc(C)c(C#N)c(N2CCN(c3ccccc3)CC2)n1`: in experiment [11], the AC50 was > 52 µM (inactive).

As for `N#Cc1c(N)nc(N)nc1Nc1ccc(Br)cc1`, the EC50 in [12] is > 67.4 µM (inactive).

In the case of `CCCCCCSc1cc(-c2nc3cc(C)ccn3c2NCCCC)ccc1OC`, the AC50 in experiment [13] is 45.7 µM (active); in experiment [14] it was 7.54 µM (active); in experiment [15], 19.8 µM (active); in experiment [16], 30.3 µM (active); in experiment [17], 45.6 µM (active).

For `Nc1ccccc1NC(=O)c1ccccc1`, the AC50 in experiment [18] is 17.5 µM (active). Moreover, the EC50 in experiment [19] is > 350 µM (not active); in experiment [20] it was 13.8 µM (active).

As for `O=C(O)c1ccc(NC2=C(n3nnc4ccccc43)C(=O)c3ccccc3C2=O)cc1`, in experiment [21], the AC50 was 4.36 µM (active). The EC50 in experiment [22] is 3 µM (active). Further, the IC50 in experiment [23] was 7.8 µM (active); in [24], 40.1 µM (inactive); in experiment [25], 11.6 µM (inactive).

A word on the EC50: it is the concentration at which the effect is half-maximal. As usually defined, the AC50 is the midpoint of the concentration-response curve, whichever way the signal moves. By IC50 is commonly meant the concentration needed to halve the response being measured.
